This note sets out measurements from ChEMBL document CHEMBL1201862, “PubChem BioAssay data set” (2004).

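All cell lines were grown in 96-well plates and treated with compound for 48 hours. GI50 marks 50% less growth.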 Activity calls are given as the source filed them. No stated cut-off is given here; in the data, active = GI50 up to about 1.1 µM and inactive = higher. Where only a bound is given, the exact number is not on record here.

What all share (experiment): NCI tumour cell line growth inhibition, 48 h
The test system of experiment [1] is A498.
Experiment [2] relates to A549.
In experiment [3] the test system is ACHN.
In experiment [4] the test system is EKVX.
Experiment [5] concerns HCT-116.
The subject of experiment [6] is K562.
The subject of experiment [7] is KM12.
Experiment [8] deals with LOX IMVI.
Experiment [9] relates to MCF7.
The subject of experiment [10] is NCI-H522.
For experiment [11], the system named is RXF 393.
Experiment [12] has as its system SF-295.
Experiment [13] relates to SK-MEL-2.
The subject of experiment [14] is SNB-19.
Experiment [15] has as its system SNB-75.
Experiment [16] deals with SR.
In experiment [17] the test system is SW-620.
Experiment [18] concerns TK-10.
Experiment [19] relates to OVCAR-8.
Experiment [20] has as its system NCI-H226.

Take `CCOC(=O)c1cccn1S(=O)(=O)c1cc(Cl)ccc1NC(=O)CC`: the GI50 in experiment [1] is > 100 µM (inactive); in experiment [2] it was 54.1 µM (inactive); in experiment [3], > 100 µM (inactive); in experiment [4], 61.7 µM (inactive); in experiment [5], 40 µM (inactive); in experiment [6], 51.8 µM (inactive). Besides, the GI50 in experiment [7] is 44.9 µM (inactive); in experiment [8], 70.5 µM (inactive); in experiment [9], > 100 µM (inactive); in [10] it was 18.5 µM (inactive); in experiment [11], 91 µM (inactive); in [12] it was 35.2 µM (inactive). Also, the GI50 is 53.5 µM (inactive) in experiment [13]; > 100 µM (inactive) in experiment [14]; 33.3 µM (inactive) in experiment [15]; > 10 µM (inactive) in experiment [16]; > 100 µM (inactive) in [17]; > 100 µM (inactive) in experiment [18].
`N#CC1=C(Nc2ccccc2)SC=C(c2ccccc2)N=C1NCc1ccccc1`: the GI50 in experiment [1] is > 100 µM (inactive); in [2], > 100 µM (inactive); in [3], > 100 µM (inactive); in experiment [5], > 100 µM (inactive); in [6] it was 24.9 µM (inactive); in [7] it was > 100 µM (inactive). For the same molecule, the GI50 in [9] was > 100 µM (inactive); in [10] it was 53.8 µM (inactive); in experiment [19], > 100 µM (inactive); in experiment [11] it was > 100 µM (inactive); in experiment [13], > 100 µM (inactive); in [14], > 100 µM (inactive). Also, the GI50 in experiment [16] was 0.984 µM (active); in experiment [17], > 100 µM (inactive); in experiment [18] it was > 100 µM (inactive).
For the molecule `CC(C)(C)OC(=O)NCCC1CN(C(=O)c2ccccc2)c2ccccc21` (stereo unspecified), the GI50 in experiment [1] is > 100 µM (inactive); in experiment [2] it was 25.3 µM (inactive); in experiment [3], 32.7 µM (inactive); in experiment [4] it was 25.6 µM (inactive); in experiment [5], 17.8 µM (inactive); in experiment [6] it was 27 µM (inactive). For the same molecule, the GI50 in experiment [7] was 31.5 µM (inactive); in experiment [9], 28.2 µM (inactive); in experiment [10] it was 22.6 µM (inactive); in [19], 25.6 µM (inactive); in experiment [11], 28 µM (inactive); in experiment [12], 29.4 µM (inactive). Also, the GI50 is 27.7 µM (inactive) in experiment [13]; 32 µM (inactive) in experiment [14]; 28.7 µM (inactive) in experiment [15]; 7.82 µM (inactive) in experiment [16]; 34.2 µM (inactive) in [17]; 56.2 µM (inactive) in experiment [18].
As to `COC(=O)CCNC(=O)OCc1ccccc1`, the GI50 in experiment [1], in experiment [2], in experiment [3], in [4], in [5] and in experiment [6] was > 100 µM (inactive) in each case. In addition, the GI50 in experiment [7], in experiment [8], in experiment [9], in experiment [20], in experiment [10] and in experiment [19] was > 100 µM (inactive) in each case. For the same molecule, the GI50 in experiment [12], in experiment [13], in experiment [14], in [15], in experiment [16] and in experiment [17] was > 100 µM (inactive) throughout. The GI50 in [18] is > 100 µM (inactive).
For `Cc1ccc(S(=O)(=O)n2ccn3c(=O)cc(C)nc23)cc1`, the GI50 in experiment [1], in experiment [2], in experiment [3], in experiment [4], in [5] and in [6] was > 10 µM (inactive) each time. In addition, the GI50 in experiment [7], in [8], in [9], in experiment [20], in experiment [19] and in experiment [11] was > 10 µM (inactive) in each case. In addition, the GI50 in experiment [12], in experiment [13], in experiment [14], in experiment [15], in experiment [16] and in [17] was > 10 µM (inactive) in each case. Further, in experiment [18], the GI50 was > 10 µM (inactive).
As for `CC12CCC(C(Br)(Br)C1=O)C2(C)C` (stereo unspecified), the GI50 in experiment [1] is 3.68 µM (inactive); in experiment [2], 4.07 µM (inactive); in [3], 0.553 µM (active); in [4], 0.493 µM (active); in experiment [5], 0.128 µM (active); in experiment [6], < 0.0202 µM (active). In addition, the GI50 is 2.77 µM (inactive) in experiment [7]; 0.611 µM (active) in experiment [8]; 0.082 µM (active) in experiment [9]; 2.03 µM (inactive) in experiment [20]; 0.0208 µM (active) in experiment [10]; 1.69 µM (inactive) in experiment [19]. Besides, the GI50 was 0.183 µM (active) in [11]; 3.49 µM (inactive) in experiment [12]; 9.62 µM (inactive) in experiment [14]; 0.711 µM (active) in [15]; < 0.01 µM (active) in experiment [16]; < 0.0476 µM (active) in experiment [17]. The GI50 in experiment [18] is 2.09 µM (inactive).
Regarding `CN(C)c1nc(NC23CC4CC(CC(C4)C2)C3)nc(N(C)C)n1`, the GI50 is > 54 µM (inactive) in experiment [1]; 8.59 µM (inactive) in [2]; 22.3 µM (inactive) in [3]; 11.3 µM (inactive) in experiment [4]; 20.7 µM (inactive) in experiment [5]; 2.81 µM (inactive) in experiment [6]. The GI50 in experiment [7] is 5.66 µM (inactive); in experiment [8], 3.36 µM (inactive); in experiment [9] it was 8.15 µM (inactive); in experiment [20], 20.4 µM (inactive); in [19] it was > 53.3 µM (inactive); in [11], 3.48 µM (inactive). The GI50 is 6.28 µM (inactive) in experiment [12]; 20.1 µM (inactive) in [13]; 14.9 µM (inactive) in experiment [14]; 7.35 µM (inactive) in [15]; 14.5 µM (inactive) in experiment [16]; 12.3 µM (inactive) in [17]. The GI50 in experiment [18] is 35.6 µM (inactive).
For `Cc1nnc(N)nc1/C=C\c1cccs1`, the GI50 is 22 µM (inactive) in experiment [1]; 27.7 µM (inactive) in [2]; 15 µM (inactive) in experiment [3]; 13.3 µM (inactive) in experiment [4]; 17.3 µM (inactive) in experiment [5]; 23.4 µM (inactive) in [6]. Also, the GI50 in [7] was 16.8 µM (inactive); in experiment [8] it was 29.6 µM (inactive); in experiment [9], 13.9 µM (inactive); in [20], 17.5 µM (inactive); in [10] it was 4.06 µM (inactive); in experiment [19] it was 17 µM (inactive). The GI50 in [11] is 19.5 µM (inactive); in [12] it was 21.4 µM (inactive); in [13], 14.6 µM (inactive); in [14], 33.6 µM (inactive); in [16] it was 16.6 µM (inactive); in experiment [17], 25.5 µM (inactive). Further, the GI50 in experiment [18] is 32.4 µM (inactive).
On to `CO[C@@H]1C[C@H]2[C@@H]3CC[C@H]([C@@H](C)COC(C)=O)[C@@]3(C)CC[C@@H]2[C@@]2(C)CC[C@H]3C[C@]312`, for which the GI50 is 20 µM (inactive) in experiment [1]; 15.9 µM (inactive) in experiment [2]; 16.6 µM (inactive) in [3]; 14.5 µM (inactive) in experiment [4]; 10.2 µM (inactive) in experiment [5]; 10.2 µM (inactive) in [6]. Moreover, the GI50 in experiment [7] is 11.1 µM (inactive); in experiment [8], 11.4 µM (inactive); in experiment [9] it was 9.48 µM (inactive); in experiment [20] it was 17.9 µM (inactive); in experiment [10] it was 16.2 µM (inactive); in experiment [19] it was 12.2 µM (inactive). Also, the GI50 was 17.7 µM (inactive) in experiment [11]; 15.1 µM (inactive) in experiment [12]; 16.9 µM (inactive) in [14]; 17.9 µM (inactive) in experiment [15]; 10 µM (inactive) in experiment [16]; 11.8 µM (inactive) in experiment [17]. Further, the GI50 in experiment [18] was > 10 µM (inactive).
Regarding `CCN(CC)CCOc1ccc(N2C(=O)c3cc(OC)c(OC)cc3C2=O)cc1`, the GI50 in experiment [1], in experiment [2], in experiment [3], in experiment [4], in experiment [5] and in experiment [6] was > 100 µM (inactive) in each case. The GI50 in experiment [7], in experiment [8], in experiment [9], in experiment [20], in experiment [10] and in experiment [19] was > 100 µM (inactive) each time. The GI50 in experiment [11], in experiment [12], in experiment [13], in experiment [14], in [16] and in [17] was > 100 µM (inactive) throughout. Moreover, in experiment [18], the GI50 is > 100 µM (inactive).
Regarding `N#C[BH2-][n+]1cn(C2CC(O)C(COP(=O)(O)OC3CC(n4ccc(N)nc4=O)OC3CO)O2)c2nc(N)[nH]c(=O)c21` (stereo unspecified), the GI50 in experiment [1] is > 100 µM (inactive); in [2], > 100 µM (inactive); in experiment [3], > 100 µM (inactive); in experiment [4], > 100 µM (inactive); in experiment [5], > 100 µM (inactive); in experiment [6], 10 µM (inactive). For the same molecule, the GI50 in [7], in [9], in experiment [20], in experiment [10], in experiment [19] and in experiment [11] was > 100 µM (inactive) each time. In addition, the GI50 in experiment [12], in experiment [13], in experiment [14], in experiment [15] and in experiment [16] was > 100 µM (inactive) throughout.
